From patent US12677850B2, “Stevia blends containing rebaudioside B” (Tate & Lyle Solutions USA LLC, priority 2011, dated 2026)

How the values were obtained:
[1] = system: panelists (descriptive panel); assay: Descriptive panel: flavor attributes and intensities as a function of rebaudioside B content (Example 6); type: in vivo, human; conditions: for Anise, comparison between the samples / Artificial Sweetener/Chemical, comparison between the samples / Sweetness, comparison between the samples / Total Flavor, comparison between the samples / True Bitter, comparison between the samples / Mouthcoating, comparison between the samples / Total Off Flavor, comparison between the samples: significant at the 95% confidence level
Description: A descriptive panel was used to quantify flavor attributes and intensities of varying levels of rebaudioside B added to rebaudioside A (which was 97% pure and contained 0.62% rebaudioside B). […] An 8% sucrose solution as a control. The solutions were prepared in neutral pH water. Other high intensity sweeteners included in the testing were Aspartame at 500 ppm, ASK at 750 ppm, Sucralose at 250 ppm, and Stevia at 500 ppm.
Before conducting the testing the ten panelists were extensively trained in the use of standardized vocabulary to describe the appearance, aroma, flavor, and texture of a wide variety of products in order to rate the samples for sweetness, bitterness, off flavor, chemical or artificial sweetener flavor, anise, and mouth coating. Each such attribute was evaluated on a first and second sip, and on after-taste. The testing began with a session to orient the panelists during which they tasted the samples and discussed the flavor characteristics. They also tasted and discussed references for “sweet”, “bitter”, and “anise”.
During the second and third days of testing, the panelists evaluated the samples for the various attributes and rated them on a scale from none to extreme that encompasses all food ingredient products, not just sweeteners. The products and solutions set forth in Table 19 were used to “anchor” the panelist to the scales.
Eight samples were evaluated per session. A 7 minute rest break was given between each sample and a 15 minute break was given after the first 4 samples had been evaluated. Two evaluations (i.e. replicates) were obtained from each panelist for each product; therefore, a total of 20 judgments were obtained for each product. During data collection, the panelists were instructed to indicate the intensity of each sensory characteristic by placing a vertical slash on 15-cm line scales. The serving order was balanced, with products seen approximately an equal number of times in each possible position. In the waiting room, ambient Alhambra drinking water, unsalted soda crackers, and celery were provided for cleansing the palate between samples.
Slash marks on the line scales were converted to numbers ranging from 1 to 15 by SIMS, the computerized sensory data collection system. Mean intensities were calculated for each sensory characteristic. Analysis of Variance and Duncan's Multiple Range Test, where appropriate, were used to determine significant differences among the samples for each attribute. When panelist-by-product interactions were significant, the mean square of the interaction term, instead of the mean square of the error term, was used in calculation of the product F values.
The flavor attributes were also compared between the samples.

[2] = type: physicochemical; conditions: pH 3
Description: To determine the solubility of rebaudioside A and rebaudioside B in certain solutions, four stock solutions were prepared. A 10× concentrated citric acid/sodium citrate pH 3 stock buffer solution was prepared by dissolving 0.9 g anhydrous citric acid and 0.26 g of sodium citrate dihydrate in water to make 100 mL of buffer (0.047 M citric acid+0.0088 M sodium citrate). A 2500 ppm (nominal) solution of rebaudioside A was prepared by dissolving 0.125 g of GLG RA 97 to make 50 mL of solution. A 2500 ppm (nominal) solution of stevioside was prepared by dissolving 0.125 g of GLG STV 97 to make 50 mL of solution. A 1000 ppm (nominal) solution of rebaudioside B was prepared by diluting 56 mL of a solution assayed at 1790 ppm to make 100 mL of solution.
These solutions were mixed as 1 mL total amounts by micropipetting the volumes, in microliters, into 1.5 mL microcentrifuge tubes As shown in Table 14.
After standing for […] (~100 hours), the tubes were spun in a bench top microcentrifuge to pelletize the precipitate. The clear supernate was sampled into vials and assayed for glycosides using a reverse phase high performance liquid chromatograph (HPLC) gradient method with UV detection (Waters 2695 Separations Module equipped with a Waters 2487 Dual X Absorbance Detector or equivalent instrumentation) that is summarized in Table 15. The HPLC conditions were as follows:
The supernatant data collected from the HPLC were processed using DESIGN EXPERT 8 software. Briefly, the data were entered into the program as “factor” data as a 2 factor-5 level general factorial design as the nominal data which were then converted to numerical data and replaced by the actual HPLC results. The software then selected a model that predicted the concentration (solubility) of rebaudioside B as a function of the concentration of rebaudioside A and stevioside in the supernatant. The software also calculated a number of statistical factors that indicated the significance of the model parameters.

informal testers = assay: Informal testing of bitterness; type: in vivo, human; conditions: adding about 20%; as believed by several informal testers
Text: Because the scale used encompasses “the universe”, the magnitude of differences between the 97% rebaudioside A solution and increasing levels of rebaudioside B is not as large as other informal testing determined.

[3] = system: Tate & Lyle employees (taste panel); assay: Paired comparison test for sweetness and preference in pH 3.1 citric acid buffer (Examples 1 and 2); type: in vivo, human
Description: A commercial blend of a steviol glycosides was dissolved in 0.0056 M citric acid buffer pH 3.1. A solution containing a commercially available sweetening composition containing 97% rebaudioside A was similarly prepared. Thirty-one […] employees participated in paired comparison tests for sweetness and preference. The products were made up in pH 3.1 citric acid buffer (0.9 grams anhydrous citric […], Decatur, IL) and 026 grams sodium citrate dihydrate ([…], Decatur, IL) per liter and tested at room temperature in two ounce soufflé cups label with random three-digit codes. The presentation order was rotated. The panelists were asked to identify the solution that was sweeter and which they like better. The ballot was presented and the data was collected with SIMS sensory software (Sensory Computer Systems, LLC, Morristown, NJ). Bottled water, a 2% sucrose solution, and unsalted crackers were available for the panelists to clear their palates before and during testing. The results of the sweetness and preference questions were analyzed with the binomial test and the Thurstonian d' calculated. The p-value for a one-tailed binomial test is calculated as [formula] where c is the number of successes, n is the number of trials, and p0 is the chance probability. A test is considered statistically significant when the p-value is less than the a priori set alpha risk. The two-tailed p-value is double the one-tailed p-value as calculated above. Thurstonian d' is a linear measure of psychophysical difference. A d' of 1 is generally considered to be a just-noticeable-difference (JND) where a stimulus will be judge stronger in 75% of the trials. The Thurstonian d' is independent of test method and for paired comparison tests is calculated as pc=Φ(d'/√{square root over (2)}) where pc is the proportion of successes, and Φ(•) is the cumulative distribution function of the standard normal distribution. These statistical terms are more fully defined in standard textbooks on the subject such as “Sensory Discrimination Tests and Measurements”, Jian Bi (Blackwell Publishing, 2006). The instructions for the paired comparison test were: • (i) It is important that you rinse before and between samples. • (ii) Clear your palate with a bite of cracker. Then rinse with the sugar water. […] Pick the sample that you like more and pick the sample that is sweeter. They may or may not be the same sample. If you are not sure or don't have a preference then pick either one. The questions for the paired comparison test were: • (i) Which of these two samples do you like more?, • (ii) Which of the two samples is sweeter? The glycoside blend of a steviol glycosides was dissolved in 0.0056 M citric acid buffer pH 3.1. A solution containing a commercially available sweetening composition containing 97% rebaudioside A was similarly prepared. The two solutions were presented to a panel of […] employees and they were asked to identify the solution that was sweeter and which they like better using the same instructions and questions as set forth above. The results of the sweetness and preference questions were analyzed with the binomial test and the Thurstonian d' calculated as set forth above. A taste panel was asked to compare a commercial mixture of rebaudioside A and stevioside to a 500 ppm sample of 97% rebaudioside A. The glycoside blend of steviol glycosides was dissolved in 0.0056 M citric acid buffer pH 3.1. A solution containing a commercially available sweetening composition containing 97% rebaudioside A was similarly prepared. Sample presentation was rotated and the samples of the two solutions (at room temperature) were presented to a panel of […] employees and they were asked to identify the solution that was sweeter and which they like better using the same instructions and questions as in Example 1. […] Another panel was asked to compare a mixture of rebaudioside B and Stevioside. The glycoside blend of steviol glycosides was dissolved in 0.0056 M citric acid buffer pH 3.1. […]

[4] = system: Tate & Lyle employees (taste panel); assay: Paired comparison test for sweetness and preference, Reb A/Reb B mixture vs 900 ppm 97% rebaudioside A (Example 3); type: in vivo, human; conditions: 536 ppm Reb A + 310 ppm Reb B vs control 900 ppm Reb A; spring water with phosphoric acid; room temperature; test sample tasted first
Description: A taste panel was asked to compare a commercial mixture of rebaudioside A and rebaudioside B and a 900 ppm sample of 97% rebaudioside A. Tate &Lyle employees participated in paired comparison tests for sweetness and preference. Samples were tested at room temperature in two ounce soufflé cups label with random three-digit code& The presentation order was not rotated because of carryover of the off-flavor of rebaudioside A at 900 ppm. The panelist evaluated the test sample first and then the control 900 ppm rebaudioside A sample. The panelists were instructed not to re-taste the samples. Additionally, the panelists were required to wait one minute between testing samples and instructed to clear their palates with a 2% sucrose solution, an unsalted cracker, and bottled water. The panelists were asked to identify the solution that was sweeter and which they like better. The ballot was presented and the data was collected with SIMS sensory software (Sensory Computer Systems, LLC, Morristown, NJ).
The instructions for the paired comparison test were: • (i) It is important that you rinse before and between samples. • (ii) Clear your palate with a bite of cracker. Then rinse with the sugar water. […]

[5] = 900 ppm rebaudioside A+rebaudioside B in neutral pH water, 8% sucrose control, 15-cm line scale converted to 1 to 15, aftertaste
[6] = 900 ppm rebaudioside A+rebaudioside B in neutral pH water, 8% sucrose control, 15-cm line scale converted to 1 to 15, first sip
[7] = 900 ppm rebaudioside A+rebaudioside B in neutral pH water, 8% sucrose control, 15-cm line scale converted to 1 to 15, second sip
[8] = Commercial Blend (total 518 mg/l) vs 97% rebaudioside A (total 498), room temperature, 31 panelists
[9] = Rebaudioside A & stevioside blend (total 789 mg/l) vs 500 ppm 97% rebaudioside A, 41 panelists
[10] = Rebaudioside B & stevioside blend (total 801 mg/l) vs 97% rebaudioside A (500 ppm), 43 panelists
[11] = Rebaudioside B blend (total 496 mg/l, about 21% Reb B) vs 97% rebaudioside A (total 498), 38 panelists

Compound: OC[C@H]1O[C@@](CO)(O[C@H]2O[C@H](CO)[C@@H](O)[C@H](O)[C@H]2O)[C@@H](O)[C@@H]1O [Sucrose, sucrose]
- ANISE: Aftertaste (mean intensity) [1, 5]: 0.13
- ARTIFICIAL SWEETENER/CHEMICAL: Aftertaste (mean intensity) [1, 5]: 0.12
- SWEET: Aftertaste (mean intensity) [1, 5]: 3.92
- TOTAL FLAVOR: Aftertaste (mean intensity) [1, 5]: 4.32
- TRUE BITTER: Aftertaste (mean intensity) [1, 5]: 0.15
- ANISE: First Sip (mean intensity) [1, 6]: 0.52
- ARTIFICIAL SWEETENER/CHEMICAL: First Sip (mean intensity) [1, 6]: 0.59
- MOUTHCOATING: First Sip (mean intensity) [1, 6]: 0.76
- SWEET: First Sip (mean intensity) [1, 6]: 8.06
- TOTAL FLAVOR: First Sip (mean intensity) [1, 6]: 8.67
- TOTAL OFF FLAVOR: First Sip (mean intensity) [1, 6]: 0.89
- TRUE BITTER: First Sip (mean intensity) [1, 6]: 0.29
- ANISE: Second Sip (mean intensity) [1, 7]: 0.41
- ARTIFICIAL SWEETENER/CHEMICAL: Second Sip (mean intensity) [1, 7]: 0.41
- MOUTHCOATING: Second Sip (mean intensity) [1, 7]: 0.89
- SWEET: Second Sip (mean intensity) [1, 7]: 7.43
- TOTAL FLAVOR: Second Sip (mean intensity) [1, 7]: 7.86
- TOTAL OFF FLAVOR: Second Sip (mean intensity) [1, 7]: 0.49
- TRUE BITTER: Second Sip (mean intensity) [1, 7]: 0.24
- Anise, comparison between the samples ([1]; aftertaste): Lowest
- Artificial Sweetener/Chemical, comparison between the samples ([1]; aftertaste): Lowest
- Sweetness, comparison between the samples ([1]; aftertaste): Lowest
- Total Flavor, comparison between the samples ([1]; aftertaste): Lowest
- True Bitter, comparison between the samples ([1]; aftertaste): Lowest
- Anise, comparison between the samples ([1]; first sip): Lowest
- Artificial Sweetener/Chemical, comparison between the samples ([1]; first sip): Lowest
- Mouthcoating, comparison between the samples ([1]; first sip): Lowest
- Sweetness, comparison between the samples ([1]; first sip): Lowest
- Total Flavor, comparison between the samples ([1]; first sip): Lowest
- Total Off Flavor, comparison between the samples ([1]; first sip): Lowest
- True Bitter, comparison between the samples ([1]; first sip): Lowest
- Anise, comparison between the samples ([1]; second sip): Lowest
- Artificial Sweetener/Chemical, comparison between the samples ([1]; second sip): Lowest
- Mouthcoating, comparison between the samples ([1]; second sip): Lowest
- Total Flavor, comparison between the samples ([1]; second sip): Lowest
- Total Off Flavor, comparison between the samples ([1]; second sip): Lowest
- True Bitter, comparison between the samples ([1]; second sip): Lowest

Compound: C=C1C[C@@]23CC[C@H]4[C@@](C)(CCC[C@@]4(C)C(=O)O[C@@H]4O[C@H](CO)[C@@H](O)[C@H](O)[C@H]4O)[C@@H]2CC[C@]1(O[C@@H]1O[C@H](CO)[C@@H](O)[C@H](O)[C@H]1O[C@@H]1O[C@H](CO)[C@@H](O)[C@H](O)[C@H]1O)C3 [stevioside]
- effect of its presence on the solubility of rebaudioside B [2]: slightly reduces

Compound: rebaudioside A
- effect of its presence on the solubility of rebaudioside B [2]: increases
- reduction of bitterness (informal testers): about 80%
- reduction of bitterness ([1]; adding about 20%, results from the descriptive panel of tasters): about 30%

Compound: rebaudioside A [97% rebaudioside A]
- # preferring [3, 8]: 20
- # sweeter [3, 8]: 15
- # preferring [3, 9]: 37
- # sweeter [3, 9]: 19
- # preferring [3, 10]: 22
- # sweeter [3, 10]: 13
- # preferring [3, 11]: 11
- # sweeter [3, 11]: 11

Compound: rebaudioside A [control 900 ppm Reb A]
- preference (number of panelists preferring the sample) [4]: 2
- sweetness (number of panelists choosing the sample as sweeter) [4]: 15
